Assay [1] relates to Escherichia coli. Kind of assay: Antibiotic activity of ampicillin (Example 24). In kind it is cell-based.
The subject of assay [2] is Pseudomonas aeruginosa. The assay can be described thus: Antibiotic activity of ampicillin (Example 24). In kind it is cell-based. Conditions: read-out: minimal inhibitory concentration.
The test system of assay [3] is Streptococcus faecalis. The assay can be described thus: Antibiotic activity of ampicillin (Example 24). In kind it is cell-based. Conditions: Enterococcus faecalis, read-out: minimal inhibitory concentration.
Assay [4] has as its system Haemophilus influenzae. Kind of assay: Antibiotic activity of ampicillin (Example 24). The following applies: read-out: minimal inhibitory concentration. In kind it is cell-based.
In assay [5] the test system is Group C streptococcus. Kind of assay: Antibiotic activity of ampicillin (Example 24). Conditions: read-out: minimal inhibitory concentration. In kind it is cell-based.
Assay [6] relates to Entrococcus faecium. Kind of assay: Antibiotic activity of ampicillin (Example 24). It counts as cell-based. Conditions: resistant to ampicillin, read-out: minimal inhibitory concentration.
Assay [7] deals with Staphylococcus aureus. The assay can be described thus: Antibiotic activity of ampicillin (Example 24). In kind it is cell-based. The following applies: read-out: minimal inhibitory concentration.
Assay [8] has as its system Klebsiella pneumonia. The assay can be described thus: Phenotype of resistant wild-type hospital strains with activated antibiotics (Example 35). It counts as cell-based. The following applies: Fli 4 ppm. As for the experimental part: (§1) Strains Gram+ and Gram- (wild-type hospital) having a resistant phenotype vis a vis standard firstly and secondly used antibiotherapy were experimented on activated antibiotics.
(§2) 250 experiments were conducted on the following strains: Streptococcus group B, C, D, F, G, Staphylococcus aureus, Staphylococcus epidermitis, Klebsiella pneumoniae, Klebsiella spirochete, Klebsiella oxytoca, Proteus mirabilis, Serratia marcescens, Escherichia coli, Citrobacter freundii, Enterobacter cloacae, Enterobacter calcoaceticus, Salmonella spirochete, Salmonella typhimurium, Pseudomonas aeruginosa, Haemophilus influenzae, Haemophilus sphrophilus, Acinetobacter calcoaeticus. […]

Assay [9] has as its system Pseudomonas aeruginosa. The assay can be described thus: MIC of antibiotics by microdilution in liquid medium on plates (Example 18). It counts as cell-based. The following applies: Pseudomonas aeruginosa, read-out: MIC (average MIC value). As for the experimental part: The unicellular living organism chosen for the trials is Pseudomonas aeruginosa (wild-type strain originating from hospital sources).
The same methodology as for Examples 11 and 12 was follows. Bacteriostatic analyses were performed with a number of antibiotics belonging to benzylpenicillins, and aminopenicillins, and first and second generation cephalosporins, namely:
The determination of the MIC was carried out by the microdilution method in liquid medium on plates. Aqueous solutions of each antibiotic are prepared in MUELLER HINION broth, to obtain dilutions in a geometric ratio of 2. The solvent is sterile double-distilled water.
The preparation of the bacterial inoculum is made with a culture of Pseudomonas aeruginosa, with agitation on a water bath at 37° C. for 4 to 6 hours, giving 10^6 bacteria/ml.
Three trials were performed per antibiotic and per bacterial inoculum. The trials were performed first with the antibiotics alone (trials a).sctn., and then with the addition of a dose of 1 mg/l of an aqueous solution of lithium fluoride (trials b).sctn. to the dilution of each one in every cup of every plate.
(Dilution methods test growth across graded concentrations, often in twofold steps.)

For assay [10], the system named is Pseudomonas aeruginosa. Kind of assay: MIC of doxycycline (Example 32). In kind it is cell-based. The following applies: alone, or with FNa 8 ppm / Fli 8 ppm. The source says: The MIC of doxycycline was studied on pseudomonas aeruginosa (wild-type hospital strain) in the same conditions as for example 31.
The test system of assay [11] is Escherichia coli ATCC 25922. Kind of assay: Antibiotic activity of patient's blood after administration, inhibition holes methodology. In kind it is in vivo. The source says:
The efficiency in vivo of the administration of doxycycline in presence of Fli has been measured and compared with the efficiency of the administration of doxycycline alone.
The antibiotic composition (doxycycline alone or with Fli) has been administered to a healthy patient, and the antibiotic activity of the patient's blood has been determined before the first administration, the day of the administration, and three days later. The delay of three days is necessary because of the low solubility of Fli: the pertinent concentration of Fli is only obtained after the end of the second day after its administration.
The patient had taken the antibiotic during the three days, 2 capsules of 250 mg each day at 8 a.m. A blood sample was taken 3 hours after each administration.
And the antibiotic activity was twice determined by a microbiological titration using the inhibition holes methodology on a standard strain ATCC 25922 of Escherichia coli.
Holes of […] diameter were made on a Mueller Hinton agar and 100 μl of plasma were injected in each hole. The agar was then seeded with an inoculum of Escherichia coli of […].
After an incubation of 24 hours at 37° C., the diameters around each holes (in which the strain was killed) were read.
In the first trial, the capsules of 250 mg were constituted of 110 mg of doxycycline chlorhydrate and of lactose.
The second trial was conducted similarly with gelules of 250 mg constituted of 110 mg of doxycycline, 53 mg of Fli and lactose.

In assay [12] the test system is Klebsiella pneumoniae. The assay can be described thus: microbe, parasite or virus in culture.
Protocol: The MIC of tetracycline was studied on Klebsiella pneumoniae (wild-type hospital strain).
The trial was conducted with tetracycline alone, tetracycline in presence of FNa and tetracycline in presence of Fli.
The test system of assay [13] is Klebsiella pneumoniae.
In assay [14] the test system is Haemophilus influenzae.
Assay [15] deals with Staphylococcus aureus. Conditions: A (tetracycline) in presence of B (Fli).
Protocol: (§3) Concentration series of two antibiotic substances A and B are prepared in the geometric ratio of 2 are combined and the following values are determined:
(§4) MIC B/A = minimal inhibiting concentration B in presence of A [formula]
(§5) The MIC of the bacteriostatic effect is read when the percentage of surviving strains is less or equal to 1%.
(§6) The combination of the substances A and B is synergistic as regards the bacteriostatic effect when FIC≤0,75. The combination is additive when FIC=1. The combination is insensible when 1<FIC≤2. The combination is antagonistic when FIC>2.
(§7) Substance A was tetracycline (concentration serie from 0,25 to 128 mg/l)
(§8) Substance B was Fli (concentration serie from 0,25 to 16 mg/l)
(§9) The strain was staphylococcus aureus (wild-type hospital resistant strain)
The test system of assay [16] is Staphylococcus aureus. The assay can be described thus: microbe, parasite or virus in culture. Conditions: read-out: MIC alone (MIC A, MIC B).
Protocol: as §3, §4, §5, §6, §7, §8, §9
For assay [17], the system named is streptococcus group F. The assay can be described thus: Phenotype of resistant wild-type hospital strains with activated antibiotics (Example 35). In kind it is cell-based. Conditions: Fli 4 ppm. How it is done:
as §1, §2

Assay [18] deals with Staphylococcus aureus. Kind of assay: Activity on wild-type hospital strains responsible for skin infections. In kind it is cell-based.
Assay [19] has as its system Group C streptococcus. Described as above. In kind it is cell-based.
In assay [20] the test system is Escherichia coli. Described as above. In kind it is cell-based.
Where [21] appears, read: LiF 0.8 mg/l, multiresistant strains often producing beta-lactamase.
The mark [22] stands for this setting: alone, multiresistant strains often producing beta-lactamase.
Where [23] appears, read: read-out: 100% inhibitory concentration, alone.

In brackets after ≈: the same amount, converted by molar mass. Where two headings read alike, the source gives them in different places. Some results are limits rather than exact numbers.

Take `CC1(C)S[C@@H]2[C@H](NC(=O)[C@H](N)c3ccccc3)C(=O)N2[C@H]1C(=O)O` [AMPICILLIN, ampicillin]: the MIC in assay [1] (ATCC25, LiF 1 mg/l, ATCC 25 922, read-out: minimal inhibitory concentration) is 2 µg/mL (≈ 5.72 µM); in assay [1] (ATCC25, alone, ATCC 25 922, read-out: minimal inhibitory concentration) it was 4 µg/mL (≈ 11.4 µM); in assay [1] (LiF 0.8 mg/l, multiresistant strains often producing beta-lactamase, read-out: minimal inhibitory concentration), 8 µg/mL (≈ 22.9 µM); in assay [1] (LiF 5 mg/l, 10 wild-type strains, read-out: minimal inhibitory concentration) it was 1 to 4 µg/mL (≈ 2.86 to 11.4 µM); in [1] (LiF 5 mg/l, resistant Escherichia coli, read-out: minimal inhibitory concentration), 8 µg/mL (≈ 22.9 µM); in assay [1] (alone, 10 wild-type strains, read-out: minimal inhibitory concentration), 2 to 8 µg/mL (≈ 5.72 to 22.9 µM). For the same molecule, the MIC in assay [1] (alone, multiresistant strains often producing beta-lactamase, read-out: minimal inhibitory concentration) is 64 µg/mL (≈ 183 µM); in assay [1] (alone, resistant Escherichia coli, read-out: minimal inhibitory concentration) it was 64 µg/mL (≈ 183 µM); in [2] (setting [21]), 4 to 8 µg/mL (≈ 11.4 to 22.9 µM); in [2] (LiF 5 mg/l), 4 to 8 µg/mL (≈ 11.4 to 22.9 µM); in [2] (setting [22]), 16 to 32 µg/mL (≈ 45.8 to 91.6 µM); in [2] (alone) it was 16 to 32 µg/mL (≈ 45.8 to 91.6 µM). Further, the MIC in assay [3] (ATCC25, LiF 5 mg/l, ATCC 25 212) was 4 µg/mL (≈ 11.4 µM); in assay [3] (ATCC25, alone, ATCC 25 212), 8 µg/mL (≈ 22.9 µM); in assay [3] (LiF 5 mg/l, 10 wild-type strains), 2 µg/mL (≈ 5.72 µM); in assay [3] (alone, 10 wild-type strains) it was 4 to 8 µg/mL (≈ 11.4 to 22.9 µM); in assay [4] (setting [21]) it was 32 µg/mL (≈ 91.6 µM); in assay [4] (LiF 5 mg/l, resistant to ampicillin, 5 wild-type strains), 32 µg/mL (≈ 91.6 µM). For the same molecule, the MIC is more than 128 µg/mL in assay [4] (setting [22]); more than 128 µg/mL in [4] (alone, resistant to ampicillin, 5 wild-type strains); 64 µg/mL (≈ 183 µM) in assay [5] (setting [21]); 8 µg/mL (≈ 22.9 µM) in assay [5] (LiF 1 mg/l); 256 µg/mL (≈ 733 µM) in [5] (setting [22]); 32 µg/mL (≈ 91.6 µM) in [5] (alone). The MIC is 64 µg/mL (≈ 183 µM) in assay [6] (LiF 5 mg/l); more than 128 µg/mL in assay [6] (alone); 32 µg/mL (≈ 91.6 µM) in assay [7] (setting [21]); 64 µg/mL (≈ 183 µM) in [7] (LiF 1 mg/l, resistant to ampicillin, 10 strains); 64 µg/mL (≈ 183 µM) in [7] (LiF 6 mg/l, resistant to ampicillin, strains producing beta-lactamase); more than 128 µg/mL in [7] (setting [22]). Also, the MIC in [7] (alone, resistant to ampicillin, 10 strains) is more than 128 µg/mL; in [7] (alone, resistant to ampicillin, strains producing beta-lactamase), more than 128 µg/mL.

Consider `CCN1CCN(C(=O)N[C@@H](C(=O)N[C@@H]2C(=O)N3C(C(=O)O)=C(CSc4nnnn4C)CS[C@H]23)c2ccc(O)cc2)C(=O)C1=O` [CEFOPERAZONE, cefoperazone], for which the “phenotype in presence of Fli” value in [8] was “the resistant phenotype was not changed”. The MIC in [9] (+ LiF 1 mg/l, strain lic R βLac^+ OXA) amounted to 64 µg/mL; in [9] (+ LiF 1 mg/l, strain lic R βLac^+ PSE) it was 32 µg/mL; in [9] (+ LiF 1 mg/l, strain lic R βLac^+ TEM), 32 µg/mL; in [9] (+ LiF 1 mg/l, strain lic R βLac^+ cephalosporinase) it was 64 µg/mL; in assay [9] (+ LiF 1 mg/l, strain lic S βLac^- (first column)) it was 4 µg/mL; in [9] (+ LiF 1 mg/l, strain lic S βLac^- (second column)), 16 µg/mL. In addition, the MIC stood at 64 µg/mL in assay [9] (alone, strain lic R βLac^+ OXA); 64 µg/mL in assay [9] (alone, strain lic R βLac^+ PSE); 32 µg/mL in assay [9] (alone, strain lic R βLac^+ TEM); 64 µg/mL in assay [9] (alone, strain lic R βLac^+ cephalosporinase); 8 µg/mL in [9] (alone, strain lic S βLac^- (first column)); 16 µg/mL in [9] (alone, strain lic S βLac^- (second column)).

For the molecule `C[C@H]1c2cccc(O)c2C(=O)C2=C(O)[C@]3(O)C(=O)C(C(N)=O)=C(O)[C@@H](N(C)C)[C@@H]3[C@@H](O)[C@@H]21` [DOXYCYCLINE, doxycycline], the MIC in assay [10] came to 1000 µg/mL. For the same molecule, the inhibition diameter in assay [11] (J0, day before the first administration, healthy patient, plasma) is on record as 7 mm; in assay [11] (J1, day of the first administration, 2 capsules each day, blood 3 hours after administration) it was 8-9 mm; in assay [11] (J3, third day of administration, 2 capsules each day, blood 3 hours after administration), 11-12 mm.

For `CN(C)C1C(=O)C(C(N)=O)=C(O)C2(O)C(=O)C3=C(O)c4c(O)cccc4C(C)(O)C3CC12` (stereo not drawn) [TETRACYCLINE, tetracycline], the MIC in [12] was 512 µg/mL (≈ 1150 µM); in assay [13] (setting [23]) it was 0.5 µg/mL (≈ 1.13 µM); in assay [13] (read-out: 100% inhibitory concentration, in the presence of LiF 2 ppm), 0.25 µg/mL; in assay [14] (setting [23]), 4 to 8 µg/mL (≈ 9 to 18 µM); in [14] (read-out: 100% inhibitory concentration, in the presence of LiF 4 ppm), 2 to 4 µg/mL; in [16], 32 µg/mL (≈ 72 µM). The “MIC A/B” value in assay [15] stood at 4 µg/mL.

Turning to `CC1(C)S[C@@H]2[C@H](NC(=O)Cc3ccccc3)C(=O)N2[C@H]1C(=O)O` [penicilline group G], the “phenotype in presence of Fli” value in assay [17] is reported as “the insensible phenotype was not changed”.

Regarding POLYMIXIN B, the 100% inhibitory concentration in assay [18] (alone) is more than 128 ppm; in [18] (in the presence of LiF 2 ppm), 64 ppm; in assay [19] (alone), more than 128 ppm; in assay [19] (in the presence of LiF 8 ppm) it was 64 ppm; in [20] (alone), more than 128 ppm; in assay [20] (in the presence of LiF 2 ppm), 64 ppm.

Source of the values: patent publication US5800838A, “Composition that inhibits or destroys at least one unicellular living organism containing fluorine F- and Lithium li+” (priority 1987, dated 1998).
